Read-outs that look alike come from different tables or passages of the source.
Tests used:
CCRF-CEM = test system: CCRF-CEM
Description: Statistical analyses. Descriptive statistics and significance testing were performed using Microsoft Excel. The Excel function “t.test” was used for Student's T-testing (two-tailed, type-2). Propagated standard deviations were calculated using standard methods. Correlation analyses were performed using Sigmaplot 11 software. […]
Due to the confounding effect of in vitro fatty acid conversion, correlation analyses were used to identify significant relationships between absolute levels of specific sphingolipids and cytotoxicity. […]

COG-LL-317 = format: cell-based, human
Description: (§1) Statistical analyses. […] Propagated standard deviations were calculated using standard methods. Correlation analyses were performed using Sigmaplot 11 software.

COG-LL-332 = format: cell-based, human
Description: as §1

MOLT-4 = format: cell-based, human
Description: as §1

Compound | Pearson Coef. (r), sphingolipid level vs cytotoxicity (CCRF-CEM) | Spearman Coef. (ρ), sphingolipid level vs cytotoxicity (CCRF-CEM) | Pearson Coef. (r), sphingolipid level vs cytotoxicity (COG-LL-317) | Spearman Coef. (ρ), sphingolipid level vs cytotoxicity (COG-LL-317) | Pearson Coefficient (r), sphingolipid level vs cytotoxicity (COG-LL-332) | Spearman Coefficient (ρ), sphingolipid level vs cytotoxicity (COG-LL-332) | Pearson Coef. (r), sphingolipid level vs cytotoxicity (MOLT-4) | Spearman Coef. (ρ), sphingolipid level vs cytotoxicity (MOLT-4) | Pearson Coef. (r), sphingolipid level vs cytotoxicity (CCRF-CEM; CCRF-CEM) | Spearman Coef. (ρ), sphingolipid level vs cytotoxicity (CCRF-CEM; CCRF-CEM)
CCCCCCCCCCCCC/C=C/[C@@H](O)[C@H](CO)NC(=O)CCCCCCCCCCCCC [C14:0-Cer] | 0.03 | 0.01 | −0.54 | −0.43 | −0.32 | −0.28 | −0.53 | −0.48 | – | –
CCCCCCCCCCCCCCC[C@@H](O)[C@H](CO)NC(=O)CCCCCCCCCCCCC [C14:0-DHCer] | 0.12 | 0.20 | 0.16 | 0.10 | 0.06 | 0.18 | 0.13 | 0.35 | – | –
CCCCCCCCCCCCCC=CC(O)C(CO)NC(=O)CCCCCCCCCCCCCCC (stereo not shown) [C16:0-Cer] | 0.25 | 0.03 | −0.48 | −0.50 | −0.09 | −0.05 | −0.62 | −0.76 | – | –
CCCCCCCCCCCCCCCC(=O)N[C@@H](CO)[C@H](O)CCCCCCCCCCCCCCC [C16:0-DHCer] | 0.26 | 0.37 | 0.03 | 0 | 0.45 | 0.62 | 0.26 | 0.57 | – | –
CCCCCCCCCCCCCC=CC(O)C(CO)NC(=O)CCCCCCCCCCCCCCCCC (stereo not shown) [C18:0-Cer] | 0.14 | 0.07 | −0.45 | −0.60 | −0.54 | −0.38 | −0.33 | −0.45 | – | –
CCCCCCCCCCCCCCCCCC(=O)N[C@@H](CO)[C@H](O)CCCCCCCCCCCCCCC [C18:0-DHCer] | 0.22 | 0.15 | −0.22 | −0.38 | −0.16 | −0.16 | 0.12 | 0.14 | – | –
CCCCCCCCC=CCCCCCCCC(=O)NC(CO)C(O)C=CCCCCCCCCCCCCC (stereo not shown) [C18:1-Cer] | 0.11 | 0.10 | −0.50 | −0.59 | −0.45 | −0.30 | −0.52 | −0.59 | – | –
CCCCCCCCCCCCCC=CC(O)C(CO)NC(=O)CCCCCCCCCCCCCCCCCCC (stereo not shown) [C20:0-Cer] | 0.01 | 0.07 | −0.63 | −0.81 | −0.79 | −0.91 | −0.46 | −0.52 | – | –
CCCCCCCCCCCCCCCCCCCC(=O)N[C@@H](CO)[C@H](O)CCCCCCCCCCCCCCC [C20:0-DHCer] | 0.20 | 0.32 | −0.04 | 0.14 | −0.09 | 0 | 0.12 | 0.14 | – | –
CCCCCCCCCCCCCC=CC(O)C(CO)NC(=O)CCCCCCCCCCCCCCCCCCCCC (stereo not shown) [C22:0-Cer] | 0.42 | 0.48 | 0.59 | 0.33 | 0.45 | 0 | 0.46 | 0.31 | – | –
CCCCCCCCCCCCCCCCCCCCCC(=O)N[C@@H](CO)[C@H](O)CCCCCCCCCCCCCCC [C22:0-DHCer] | 0.67 | 0.75 | 0.86 | 0.79 | 0.73 | 0.81 | 0.79 | 0.91 | – | –
CCCCCCCCC=CCCCCCCCCCCCC(=O)NC(CO)C(O)C=CCCCCCCCCCCCCC (stereo not shown) [C22:1-Cer] | −0.23 | −0.24 | −0.28 | −0.60 | −0.14 | −0.26 | −0.32 | −0.48 | – | –
CCCCCCCCC=CCCCCCCCCCCCC(=O)NC(CO)C(O)CCCCCCCCCCCCCCC (stereo not shown) [C22:1-DHCer] | −0.13 | 0.22 | −0.28 | −0.26 | 0.07 | 0.62 | −2.5 × 10^−3 | 0.24 | – | –
CCCCCCCCCCCCCC=CC(O)C(CO)NC(=O)CCCCCCCCCCCCCCCCCCCCCCC (stereo not shown) [C24:0-Cer] | 0.40 | 0.41 | 0.48 | 0.25 | 0.39 | 0.38 | 0.33 | 0 | – | –
CCCCCCCCCCCCCCCCCCCCCCCC(=O)N[C@@H](CO)[C@H](O)CCCCCCCCCCCCCCC [C24:0-DHCer] | 0.58 | 0.84 | 0.89 | 0.91 | 0.74 | 0.83 | 0.79 | 0.88 | – | –
CCCCCCCC/C=C\CCCCCCCCCCCCCC(=O)N[C@@H](CO)[C@H](O)/C=C/CCCCCCCCCCCCC [C24:1-Cer] | −0.27 | −0.32 | −0.42 | −0.74 | −0.07 | 0.05 | −0.43 | −0.55 | – | –
CCCCCCCC/C=C\CCCCCCCCCCCCCC(=O)N[C@@H](CO)[C@H](O)CCCCCCCCCCCCCCC [C24:1-DHCer] | −0.17 | −0.07 | −0.29 | −0.21 | 0.14 | 0.45 | −0.04 | 0.12 | – | –
CCCCCCCCCCCCCCC[C@@H](O)[C@@H](N)COP(=O)(O)O [Sphingaine-1-P] | 0.44 | 0.38 | – | – | – | – | – | – | – | –
CCCCCCCCCCCCC/C=C/[C@@H](O)[C@@H](N)COP(=O)(O)O [Sphingosine-1-P] | – | – | – | – | – | – | – | – | −0.07 | 0.27
CCCCCCCCCCCCC/C=C/[C@@H](O)[C@@H](N)CO [Sphingosine] | 0.02 | −0.19 | – | – | – | – | – | – | – | –
